Test results from PMC7762498, “Demethoxycurcumin analogue DMC-BH exhibits potent anticancer effects on orthotopic glioblastomas” (Aging (Albany NY), 2020).
pIC50: −log10 of the molar value. Where two headings read alike, the source gives them in different places.

Legend:
[1] = Octanol-water partition coefficient; format: physicochemical
Source text: To determine whether DMC-BH inhibits the growth of glioma in the brain, we assessed its octanol-water partition coefficients and BBB penetrability. The hydrophobic parameters (logP) of DMC-BH and DMC were estimated under physiological as well as in acidic and basic conditions. The logP values for DMC-BH were negative at pH 2.5 and pH 9.0, as it was an amphoteric compound. At low pH or high pH conditions, DMC-BH occurred in the form of salts, and its logP values became negative due to better solubility.
Figure 2 Octanol-water partition coefficients (logP) and BBB penetrability of DMC-BH. (A) The logP was defined as log(Coctanol/Cwater). The amount of the compound in the water phase was determined spectrophotometrically, and the amount in the octanol phase was obtained by subtracting the supernatant concentration from the total concentration. (B) The BBB penetrability was defined as a brain-to-plasma AUC(time point) ratio. Values are expressed as the means ± SEM of 3 independent experiments.
The partition coefficient (P) between n-octanol and water was determined. The buffer mixture (0.05 M citric buffer, pH 2.5; 0.05 M acetic acid buffer, pH 5.5; 5 mM PBS, pH 7.4; or 0.05 M bicarbonate buffer, pH 9.0) and n-octanol was pre-equilibrated overnight at room temperature. After addition of the DMC or DMC-BH, the mixture was vortexed for 10 minutes and incubated at room temperature for an additional 15 minutes before centrifugation at 1000 g for 5 minutes. The amount of the compound in water phase was determined spectrophotometrically using standard curves, and the amount in lipid phase was obtained by subtracting the supernatant concentration from the total concentration, measured before mixing of the phases. P was determined according to P = (noct/Voct)/(nw/Vw), where n denotes the number of compound moles, V is the volume and the subscripts oct and w refer to n-octanol and aqueous phase, respectively.

SHG-44 glioma cells = experiment: MTT cell viability assay, SHG-44; format: cell-based; details: Homo sapiens, SHG-44 cells, 72 hours
Procedure: (§1) To investigate the cytotoxicity of DMC-BH on glioma cells (Figure 1A), we used an MTT assay to assess viability changes in SHG-44, C6, U251, U87, A172 and primary glioma cells treated with various concentrations of DMC-BH for 24, 48 or 72 hours (Figure 1B–1H). […] U251 and SHG-44 cells were more sensitive to DMC-BH. We then used the human glial cell line, HEB, to evaluate the toxicity of DMC-BH in normal cells. […] DMC-BH was not toxic to normal cells.
(§2) The human GBM U87-luc cell line was purchased from the Shanghai Sunbio Medical Biotechnology Co., Ltd. (Shanghai, China). Cells were cultured in DMEM supplemented with 10% fetal bovine serum (FBS) and maintained in an incubator at 37° C and 5% CO2. After cells were routinely passaged at 2- to 3-day intervals, animal experiments were carried out when the cells entered exponential growth phase. Rat C6, human SHG-44, U87, A172 and U251 glioma cells were obtained from the Shanghai Institute of Cell Biology, Chinese Academy of Sciences (Shanghai, China). Primary glioma cells were preserved by our laboratory from previous studies. […]
(§3) Glioblastoma cells were seeded into 96-well plates and exposed to vehicle (PBS) or different concentrations of DMC-BH for 24, 48 or 72 hours. Cell viability was measured using an MTT assay and was expressed as a ratio to the absorbance value of the control cells at 570 nm.

ICR mice = experiment: in vivo; details: mouse; for Mortality rate (%) / No. of dead mice: female, ICR, 14 days
in vivo = details: female, ICR, mouse, ip
U87 glioma cells = experiment: MTT cell viability assay, U87; format: cell-based; details: Homo sapiens, U-87 MG, 72 hours
Procedure: as §1, §2, §3

[2] = system: glioblastoma multiforme (GBM) patient derived tumors; experiment: Patient-derived tumor xenograft (PDTX) model; format: in vivo, mice
Source text: In recent years, PDTX models have been used to mimic human tumors. These models are more clinically relevant than cell line-based xenograft models. Thus, we performed an in vivo study in a PDTX tumor model by implanting human glioma samples from a patient donor into B-NDG mice (Figure 7A).
Figure 7 In vivo anti-tumor activity of DMC-BH in the PDTX tumor model. (A) A scheme illustrating the process of creating the patient-derived tumor model. (B) Tumor growth curves of mice after treatment with 7.5 mg/kg, 15 mg/kg or 30 mg/kg DMC-BH or 20 mg/kg TMZ. (C) Average tumor weight at day 21 after different treatments. (D) Quantification of the Ki67-positive area in different treatment groups. (E) Representative H&E-stained tumor slices and Ki67 immunofluorescence labeled tumor tissue sections from different treatments groups. The data are shown as mean ± SD (n = 6).
Surgically resected human glioma tissue was obtained from a cancer patient (#0407002) following an approved Nanjing Medicinal University Institutional Review Board protocol. Within 2 hours of surgical resection, tumor tissues were cut into 1-2 mm fragments and implanted into SCID mice (B-NDG, 6 weeks old, female) using a surgical procedure approved by Nanjing Medicinal University Institutional Animal Care and Use committee. After surgery, tumor growth in the mice was monitored by palpating the abdomen twice per week. Tumors grew to 5-10 mm in diameter in about 8-10 weeks. The SCID mice bearing PDTX tumors were sacrificed, and tumor fragments of 1 to 2 mm in size were implanted into 6-week-old female SCID mice. Over 60% of the mice experienced tumor growth in approximately 6 weeks.

[3] = system: human glial cell line, HEB; experiment: MTT assay on normal glial cells; format: cell-based; details: 24 hours of incubation with 32 μM
Procedure: as §1, §3

U251 glioma cells = experiment: MTT cell viability assay, U251; format: cell-based; details: Homo sapiens, U-251, 72 hours
Procedure: as §1, §2, §3

A172 glioma cells = experiment: MTT cell viability assay, A172; format: cell-based; details: Homo sapiens, A 172, 72 hours
Procedure: as §1, §2, §3

[4] = B-NDG mice, DMC-BH 7.5, 15 or 30 mg/kg, TMZ 20 mg/kg

COc1cc(C=CC(=O)CC(=O)C=Cc2ccc(O)c(CN3CCCC3)c2)ccc1O [DMC-BH, 1-[4-Hydroxy-3-(pyrrolidin-1-ylmethyl)phenyl]-7-(4-hydroxy-3-methoxyphenyl) hepta-1,6-diene-3,5-dione]
logP ([1]; n-octanol/water (buffer), pH 7.4, n-octanol/water, read-out: logP): 3.26 | logP ([1]; pH 2.5, n-octanol/water): negative | logP ([1]; pH 9.0, n-octanol/water): negative | pIC50 (SHG-44 glioma cells): 5.51 | Mortality rate (%) (ICR mice; 5 mg/kg): 0.0% | No. of dead mice (ICR mice; 5 mg/kg): 0 | Mortality rate (%) (ICR mice; 10 mg/kg): 0.0% | No. of dead mice (ICR mice; 10 mg/kg): 0 | Mortality rate (%) (ICR mice; 20 mg/kg): 0.0% | No. of dead mice (ICR mice; 20 mg/kg): 0 | Mortality rate (%) (ICR mice; 30 mg/kg): 10.0% | No. of dead mice (ICR mice; 30 mg/kg): 1 | abnormalities compared to the control mice (ICR mice): no abnormalities | LD50 at 14 days (in vivo): 48.1 mg/kg | pIC50 (U87 glioma cells): 5.32 | tolerability in PDTX model [2, 4]: tolerated | tumor growth in PDTX model [2, 4]: significant tumor regression | number of Ki67-positive cells in tumor ([2]; PDTX tumor, 20 mg/kg, compared with the control tumor): marked decrease | viability of HEB cells [3]: not reduced markedly | pIC50 (U251 glioma cells): 5.60 | pIC50 (A172 glioma cells): 5.25
